Source: patent US9474790B2, “Stable, protracted GLP-1/glucagon receptor co-agonists for medical use” (Novo Nordisk A/S, priority 2013, dated 2016)
Numbered stars: 1 amine (or outer) side, 2 acyl side, 3 side chain; on linkers, the order of the positions; unused ones are H or OH. Bridge positions count the residues as written; N and C are the ends. Square brackets hold non-standard residues; d marks the D form. Side chains are listed from the residue outwards. Peptide text beside a SMILES is read from it. I, II: the chains in the order shown. * marks the point of attachment. C18 diacid = O=C(O)CCCCCCCCCCCCCCCCC(=O)*; γGlu = O=C(O)[C@H](CCC(=O)[*:2])N[*:1]; Ac4c = NC1(C(=O)O)CCC1; AEEA = NCCOCCOCC(=O)O; Aib = CC(C)(N)C(=O)O

How the values were obtained:
[1] = Thioflavin T (ThT) fibrillation assay for physical stability; format: physicochemical; settings: 250 μM in 10 mM HEPES buffer, pH 7.5, 37° C., shaking 960 rpm
Outline: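 Fibrillation was followed by ThT (1 μM) fluorescence every 20 min, 444/485 nm, for 250 μM peptide in 10 mM HEPES pH 7.5 shaken at 960 rpm, 37° C. Lag time (t0−2τ) and apparent rate constant (1/τ) come from a sigmoidal fit. Recovery is % of initial concentration remaining soluble after centrifugation and filtration (RP-HPLC).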

[2] = Chemical stability assessment by RP-UPLC; format: physicochemical; settings: 333 μM, 8 mM phosphate buffer pH 7.3, 37° C. vs 5° C.
Procedure: The purpose of this assay was to assess the chemical stability of the glucagon derivatives of the invention in aqueous solutions.
Chemical stability of glucagon derivatives or analogues was investigated by RP-UPLC separation and UV detection. Lyophilized samples were dissolved in a 8 mM Phosphate buffer pH 8.6, followed by adjustment to pH 7.3.using HCl to a final concentration of 333 μM. Samples were incubated for 14 days at 5° C. and 37° C. followed by RP-UPLC analysis. Purity was defined as the area percentage of the main peak in relation to the total area of all integrated peaks in each chromatogram. Purity loss after 14 days at 37° C. was determined as the difference in purity between the samples incubated at 5° C. and 37° C., divided by the purity of the sample after incubation for 14 days at 5° C.
RP-UPLC analysis was performed using a Waters BEH130 2.1 mm×150 mm, 1.7 μm column operated at 50° C. and a flow rate of 0.4 mL/min using a mobile phase system consisting of A: 0.05% TFA in MQ-water B: 0.05% TFA in Acetonitrile. UV-detection was performed at 215 nm. The typical gradient profile used for most of the samples is shown below.
For some individual derivatives or analogues eluting at substantially different retention times compared with the majority of derivatives or analogues, some adjustments to the gradient profile were made to better enable purity assessment comparison across samples. The data confirmed the improved chemical stability of the glucagon derivatives of this invention.

Structure (SMILES)	THT assay Lag time (Ex. 76) [1] [h]	Purity loss; 14 days at 37° C. [2] [%]
CC(C)C[C@H](NC(=O)[C@H](CC(C)C)NC(=O)[C@H](Cc1c[nH]c2ccccc12)NC(=O)[C@H](CCC(N)=O)NC(=O)[C@@H](NC(=O)[C@H](Cc1ccccc1)NC(=O)[C@H](CCC(=O)O)NC(=O)[C@H](CCC(N)=O)NC(=O)[C@H](C)NC(=O)[C@H](C)NC(=O)[C@H](CCCCN)NC(=O)[C@H](CO)NC(=O)[C@H](CC(=O)O)NC(=O)[C@H](CC(C)C)NC(=O)[C@H](Cc1ccc(O)cc1)NC(=O)[C@H](CCCCN)NC(=O)[C@H](CO)NC(=O)[C@H](CC(C)C)NC(=O)[C@H](CC(=O)O)NC(=O)[C@H](CO)NC(=O)[C@@H](NC(=O)[C@H](Cc1ccccc1)NC(=O)[C@@H](NC(=O)CNC(=O)[C@H](CCC(N)=O)NC(=O)C(C)(C)NC(=O)[C@@H](N)Cc1c[nH]cn1)[C@@H](C)O)[C@@H](C)O)C(C)C)C(=O)N[C@@H](CC(N)=O)C(=O)N[C@@H](CCCCNC(=O)CC[C@H](NC(=O)CC[C@H](NC(=O)COCCOCCNC(=O)COCCOCCNC(=O)CC[C@H](NC(=O)CCCCCCCCCCCCCCCCC(=O)O)C(=O)O)C(=O)O)C(=O)O)C(N)=O [Example 8, N^ε29-[(4S)-4-carboxy-4-[[(4S)-4-carboxy-4-[[2-[2-[2-[[2-[2-[2-[[(4S)-4-carboxy-4-(17-carboxyheptadecanoylamino)butanoyl]amino]ethoxy]ethoxy]acetyl]amino]ethoxy]ethoxy]acetyl]amino]butanoyl]amino]butanoyl]-[Aib2,Leu10,Lys17,Ala18,Glu21,Leu27,Lys29]-Glucagon amide] (H-H[Aib]QGTFTSDLSKYLDSKAAQEFVQWLLNK([γGlu-γGlu-AEEA-AEEA-γGlu-C18 diacid])-NH2; N-terminus assumed)	45	9
CC(C)C[C@H](NC(=O)[C@H](Cc1ccc(O)cc1)NC(=O)[C@H](CCCCN)NC(=O)[C@H](CO)NC(=O)[C@H](CC(C)C)NC(=O)[C@H](CC(=O)O)NC(=O)[C@H](CO)NC(=O)[C@@H](NC(=O)[C@H](Cc1ccccc1)NC(=O)[C@@H](NC(=O)CNC(=O)[C@H](CCC(N)=O)NC(=O)C1(NC(=O)[C@@H](N)Cc2c[nH]cn2)CCC1)[C@@H](C)O)[C@@H](C)O)C(=O)N[C@@H](CCC(=O)O)C(=O)N[C@@H](CCC(=O)O)C(=O)N[C@@H](CCCNC(=N)N)C(=O)N[C@@H](CCCNC(=N)N)C(=O)N[C@@H](C)C(=O)N[C@@H](CCCNC(=N)N)C(=O)N[C@@H](CC(=O)O)C(=O)N[C@@H](Cc1ccccc1)C(=O)N[C@H](C(=O)N[C@@H](CCC(N)=O)C(=O)N[C@@H](Cc1c[nH]c2ccccc12)C(=O)N[C@@H](CC(C)C)C(=O)N[C@@H](CC(C)C)C(=O)N[C@@H](CCCCNC(=O)CNC(=O)[C@H](CO)NC(=O)[C@H](CCC(=O)O)NC(=O)CNC(=O)[C@H](CO)NC(=O)CC[C@H](NC(=O)CC[C@H](NC(=O)CCCCCCCCCCCCCCCCC(=O)O)C(=O)O)C(=O)O)C(=O)N[C@H](C(N)=O)[C@@H](C)O)C(C)C [Example 16, N^ε28-[2-[[(2S)-2-[[(2S)-4-carboxy-2-[[2-[[(2S)-2-[[(4S)-4-carboxy-4-[[(4S)-4-carboxy-4-(17-carboxyheptadecanoylamino)butanoyl]amino]butanoyl]amino]-3-hydroxypropanoyl]amino]acetyl]amino]butanoyl]amino]-3-hydroxypropanoyl]amino]acetyl]-[Acb2,Leu10,Glu15,Glu16,Arg20,Leu27,Lys28]-Glucagon amide] (I: H-H[Ac4c]QGTFTSDLSKYLEERRARDFVQWLLKT-NH2 / II: {C18 diacid-γGlu-γGlu}-SGESG; amide I:28-II:C; N-terminus assumed)	45	3
CC(C)C[C@H](NC(=O)[C@H](Cc1ccc(O)cc1)NC(=O)[C@H](CCCCN)NC(=O)[C@H](CO)NC(=O)[C@H](CC(C)C)NC(=O)[C@H](CC(=O)O)NC(=O)[C@H](CO)NC(=O)[C@@H](NC(=O)[C@H](Cc1ccccc1)NC(=O)[C@@H](NC(=O)CNC(=O)[C@H](CCC(N)=O)NC(=O)C1(NC(=O)[C@@H](N)Cc2c[nH]cn2)CCC1)[C@@H](C)O)[C@@H](C)O)C(=O)N[C@@H](CCC(=O)O)C(=O)N[C@@H](CO)C(=O)N[C@@H](CCCNC(=N)N)C(=O)N[C@@H](CCCNC(=N)N)C(=O)N[C@@H](C)C(=O)N[C@@H](CCCNC(=N)N)C(=O)N[C@@H](CCC(=O)O)C(=O)N[C@@H](Cc1ccccc1)C(=O)N[C@H](C(=O)N[C@@H](CCC(N)=O)C(=O)N[C@@H](Cc1c[nH]c2ccccc12)C(=O)N[C@@H](CC(C)C)C(=O)N[C@@H](CC(C)C)C(=O)N[C@@H](CCCCNC(=O)CC[C@H](NC(=O)CC[C@H](NC(=O)COCCOCCNC(=O)COCCOCCNC(=O)CC[C@H](NC(=O)CC[C@H](NC(=O)CCCCCCCCCCCCCCCCC(=O)O)C(=O)O)C(=O)O)C(=O)O)C(=O)O)C(=O)N[C@H](C(N)=O)[C@@H](C)O)C(C)C [Example 61, N^ε28-[(4S)-4-carboxy-4-[[(4S)-4-carboxy-4-[[2-[2-[2-[[2-[2-[2-[[(4S)-4-carboxy-4-[[(4S)-4-carboxy-4-(17-carboxyheptadecanoylamino)butanoyl]amino]butanoyl]amino]ethoxy]ethoxy]acetyl]amino]ethoxy]ethoxy]acetyl]amino]butanoyl]amino]butanoyl]-[Acb2,Leu10,Glu15,Arg20,Glu21,Leu27,Lys28]-Glucagon amide] (H-H[Ac4c]QGTFTSDLSKYLESRRAREFVQWLLK([γGlu-γGlu-AEEA-AEEA-γGlu-γGlu-C18 diacid])T-NH2; N-terminus assumed)	20	–

Second part, the compound after the results:

THT assay Lag time (Ex. 76) [1] [h]	Purity loss; 14 days at 37° C. [2] [%]	Structure (SMILES)
45	8	CC(C)C[C@H](NC(=O)[C@H](CC(C)C)NC(=O)[C@H](Cc1c[nH]c2ccccc12)NC(=O)[C@H](CCC(N)=O)NC(=O)[C@@H](NC(=O)[C@H](Cc1ccccc1)NC(=O)[C@H](CCC(=O)O)NC(=O)[C@H](CCCNC(=N)N)NC(=O)[C@H](C)NC(=O)[C@H](CCCNC(=N)N)NC(=O)[C@H](CCCNC(=N)N)NC(=O)[C@H](CO)NC(=O)[C@H](CC(=O)O)NC(=O)[C@H](CC(C)C)NC(=O)[C@H](Cc1ccc(O)cc1)NC(=O)[C@H](CCCCN)NC(=O)[C@H](CO)NC(=O)[C@H](CC(C)C)NC(=O)[C@H](CC(=O)O)NC(=O)[C@H](CO)NC(=O)[C@@H](NC(=O)[C@H](Cc1ccccc1)NC(=O)[C@@H](NC(=O)CNC(=O)[C@H](CCC(N)=O)NC(=O)C(C)(C)NC(=O)[C@@H](N)Cc1c[nH]cn1)[C@@H](C)O)[C@@H](C)O)C(C)C)C(=O)N[C@@H](CC(N)=O)C(=O)N[C@@H](CCCCNC(=O)CC[C@H](NC(=O)CC[C@H](NC(=O)COCCOCCNC(=O)COCCOCCNC(=O)CC[C@H](NC(=O)CCCCCCCCCCCCCCCCC(=O)O)C(=O)O)C(=O)O)C(=O)O)C(N)=O [Example 12, N^ε29-[(4S)-4-carboxy-4-[[(4S)-4-carboxy-4-[[2-[2-[2-[[2-[2-[2-[[(4S)-4-carboxy-4-(17-carboxyheptadecanoylamino)butanoyl]amino]ethoxy]ethoxy]acetyl]amino]ethoxy]ethoxy]acetyl]amino]butanoyl]amino]butanoyl]-[Aib2,Leu10,Arg20,Glu21,Leu27,Lys29]-Glucagon amide] (H-H[Aib]QGTFTSDLSKYLDSRRAREFVQWLLNK([γGlu-γGlu-AEEA-AEEA-γGlu-C18 diacid])-NH2)
45	2	CC(C)C[C@H](NC(=O)[C@H](Cc1ccc(O)cc1)NC(=O)[C@H](CCCCN)NC(=O)[C@H](CO)NC(=O)[C@H](CC(C)C)NC(=O)[C@H](CC(=O)O)NC(=O)[C@H](CO)NC(=O)[C@@H](NC(=O)[C@H](Cc1ccccc1)NC(=O)[C@@H](NC(=O)CNC(=O)[C@H](CCC(N)=O)NC(=O)C(C)(C)NC(=O)[C@@H](N)Cc1c[nH]cn1)[C@@H](C)O)[C@@H](C)O)C(=O)N[C@@H](CCC(=O)O)C(=O)N[C@@H](CO)C(=O)N[C@@H](CCCNC(=N)N)C(=O)N[C@@H](CCCNC(=N)N)C(=O)N[C@@H](C)C(=O)N[C@@H](CCCNC(=N)N)C(=O)N[C@@H](CCC(=O)O)C(=O)N[C@@H](Cc1ccccc1)C(=O)N[C@H](C(=O)N[C@@H](CCC(N)=O)C(=O)N[C@@H](Cc1c[nH]c2ccccc12)C(=O)N[C@@H](CC(C)C)C(=O)N[C@@H](CC(C)C)C(=O)N[C@@H](CCCCNC(=O)CC[C@H](NC(=O)CC[C@H](NC(=O)COCCOCCNC(=O)COCCOCCNC(=O)CC[C@H](NC(=O)CCCCCCCCCCCCCCCCC(=O)O)C(=O)O)C(=O)O)C(=O)O)C(=O)N[C@H](C(N)=O)[C@@H](C)O)C(C)C [Example 23, N^ε28-[(4S)-4-carboxy-4-[[(4S)-4-carboxy-4-[[2-[2-[2-[[2-[2-[2-[[(4S)-4-carboxy-4-(17-carboxyheptadecanoylamino)butanoyl]amino]ethoxy]ethoxy]acetyl]amino]ethoxy]ethoxy]acetyl]amino]butanoyl]amino]butanoyl]-[Aib2,Leu10,Glu15,Arg20,Glu21,Leu27,Lys28]-Glucagon amide] (H-H[Aib]QGTFTSDLSKYLESRRAREFVQWLLK([γGlu-γGlu-AEEA-AEEA-γGlu-C18 diacid])T-NH2; N-terminus assumed)
